Results published in patent publication US20240245647A1, “ISOMEROHYDROLASE INHIBITOR FOR TREATMENT OF ATROPHIC FORM OF AGE-RELATED MACULAR DEGENERATION AND STARGARDT DISEASE” (The Trustees of Columbia University in the City of New York, priority 2021, published 2024).
pIC50, pKi: −log10 of the molar value. Like-named read-outs stand apart in the source and are kept apart here.

What was measured:
[1] = target: T1, RPE65 (Gallus gallus, UniProt Q9YGX2); test: Liposome-based isomerase assay with purified RPE65; assay type: biochemical, chicken
T1 sequence (Q9YGX2 1-533): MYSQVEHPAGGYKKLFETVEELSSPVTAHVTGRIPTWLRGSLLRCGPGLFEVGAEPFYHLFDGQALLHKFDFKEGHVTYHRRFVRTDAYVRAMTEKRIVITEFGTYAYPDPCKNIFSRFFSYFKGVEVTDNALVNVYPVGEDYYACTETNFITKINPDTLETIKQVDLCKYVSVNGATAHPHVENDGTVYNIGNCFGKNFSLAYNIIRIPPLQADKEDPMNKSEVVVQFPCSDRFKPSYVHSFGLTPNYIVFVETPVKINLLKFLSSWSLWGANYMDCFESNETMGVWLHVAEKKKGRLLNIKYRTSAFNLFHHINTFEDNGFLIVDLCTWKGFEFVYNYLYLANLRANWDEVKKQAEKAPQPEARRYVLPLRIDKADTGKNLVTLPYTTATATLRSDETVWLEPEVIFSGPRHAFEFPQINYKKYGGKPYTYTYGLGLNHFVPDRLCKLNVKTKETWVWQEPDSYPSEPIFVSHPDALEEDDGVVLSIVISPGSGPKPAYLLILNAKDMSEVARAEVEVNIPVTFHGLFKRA
Procedure: FIG. 3. Uncompetitive inhibition of RPE65 isomerase by RPE65-61. All-trans-retinyl ester incorporated in liposomes was used as a substrate for purified RPE65 in the isomerase assay. (FIG. 3A) HPLC elution profile of the reaction products without inhibitor; (FIG. 3B) with 180 nM of RPE65-61; Peak 1, retinyl esters; Peak 2, 11-cis-retinol; Peak 3, all-trans-retinol. (FIG. 3C) Lineweaver-Burk plot of 11-cis-retinol generated by RPE65. Liposomes with increasing concentrations (S) of all-trans-retinyl palmitate were incubated with 25 μg of purified chicken RPE65 in the absence (♦) or in the presence of RPE65-61 (180 nM) (▪).
All-trans [11,12-^3H]-retinol (1 mCi/ml, 45.5 Ci/mmol, Perkin Elmer, Boston, MA) in N,N-dimethyl formamide (DMF) was used as the substrate for the isomerohydrolase assay. Bovine RPE microsomes were prepared as described previously. […] The upper layer was collected and the generated retinoids were analyzed by normal phase HPLC as described (Moiseyev, G. et al. 2003). […] The isomerohydrolase activity was calculated from the area of the 11-cis retinol peak using Radiomatic 610TR software (Perkin Elmer, Boston, MA) with synthetic 11-cis [^3H]-retinol as a standard. […] The retinoid profile after completion of the reaction was analyzed by HPLC where the peaks were identified by co-elution with retinoid standards. […]

[2] = target: T2, RPE65 (Bos taurus, UniProt Q28175); test: In vitro retinol isomerase (isomerohydrolase, IMH) assay with bovine RPE microsomes; assay type: biochemical
T2 construct: Bovine RPE microsomes were prepared as described previously; from tissue; host or cells: bovine retinal pigment epithelium (RPE) microsomes
Procedure: FIG. 2. Inhibition of the RPE65 isomerase activity by RPE65-61. Bovine RPE microsomes (20 μg) were incubated with 0.2 μM of all-trans-[3H]-retinol in the presence or absence of RPE65-61 for 1 h at 37° C. The generated retinoids were analyzed by HPLC coupled with flow scintillation analyzer. (FIG. 2A) HPLC elution profile without inhibitor; (FIG. 2B) with 375 nM of RPE65-61. Peak 1, retinyl esters; Peak 2, 11-cis-retinol; Peak 3 all-trans-retinol.
All-trans [11,12-^3H]-retinol (1 mCi/ml, 45.5 Ci/mmol, Perkin Elmer, Boston, MA) in N,N-dimethyl formamide (DMF) was used as the substrate for the isomerohydrolase assay. Bovine RPE microsomes were prepared as described previously. For each reaction, 25 μg microsomal proteins from the bovine RPE were added into 200 μl of reaction buffer (10 mM BTP, pH 8.0, 100 mM NaCl) containing 0.2 μM of all-trans retinol, 1% BSA and 25 μM of cellular retinaldehyde-binding protein (CRALBP). For the inhibition of isomerase activity, RPE65-61 dissolved in the DMF was added to the reaction prior to addition of all-trans retinol. The reaction was stopped and retinoids extracted with 300 μl of cold methanol and 300 μl of hexane and centrifuged at 10,000×g for 5 min. The upper layer was collected and the generated retinoids were analyzed by normal phase HPLC as described (Moiseyev, G. et al. 2003). […] The isomerohydrolase activity was calculated from the area of the 11-cis retinol peak using Radiomatic 610TR software (Perkin Elmer, Boston, MA) with synthetic 11-cis [^3H]-retinol as a standard. […] The retinoid profile after completion of the reaction was analyzed by HPLC where the peaks were identified by co-elution with retinoid standards. The RPE65 isomehydrolase activity was calculated based on the 11-cis retinol peak area as described (Moiseyev, G. et al. 2005; Nikolaeva, O. et al. 2009). […] The inhibition constant for RPE65-61 was calculated from the following equation: Ki=[I]/([…]) where [I] is concentration of inhibitor, Vm is maximal velocity in the absence of the inhibitor, and Vmi is maximal velocity in the presence of the inhibitor.

[3] = system: VAP-1; test: in vitro; settings: male, Beagle, dog, plasma, pH 7.4
Procedure: Studies were carried out in mixed-gender human plasma (Lot #HMN330460) and male Beagle dog plasma (Lot #BGL118112), obtained from BioIVT and collected on sodium heparin. Plasma was adjusted to pH 7.4 prior to initiating the experiments. DMSO stocks were first prepared for the test articles. Aliquots of the DMSO solutions were dosed into 1 mL of plasma, which had been pre-warmed to 37° C., at a final test article concentration of 1 μM. The vials were kept in a benchtop Thermomixer® for the duration of the experiment. Aliquots (100 μL) were taken at each time point (0, 15, 30, 60, and 120 minutes) and added to 96-well plates, which had been pre-filled with 300 μL of acetonitrile (ACN). Samples were stored at 4° C. until the end of the experiment. After the final time point was sampled, the plate was mixed and then centrifuged at 3,000 rpm for 10 minutes. Aliquots of the supernatant were removed, diluted 1:1 into distilled water, and analyzed by LC-MS/MS. The peak area response ratio to internal standard (PARR) was compared to the PARR at time 0 to determine the percent of test article remaining at each time point. Half-lives were calculated using GraphPad software, fitting to a single-phase exponential decay equation.

[4] = Sequestration of all-trans-retinal (atRAL) in vitro; settings: 100 μM compound, equimolar atRAL, 30 min
Procedure: Test compounds (100 μM) were incubated with equimolar amounts of all-trans-retinal for 30 min. The UV-vis spectra were collected and the concentration of all-trans-retinal was assessed based on the 370 nm absorbance. (FIG. 11A) Graph bars show mean atRAL levels normalized to DMSO; error bars show SD; one-way ANOVA with Holm-Sidak post-hoc test was used for statistical analysis; *P<0.05; ****P<0.0001.

[5] = system: cGAS/STING signal pathway; test: cGAS/STING pathway activation after LIRD (Western blot); assay type: in vivo, BALB/c mice; settings: 2 mg/kg
Procedure: FIG. 8. Elevated protein levels of cGAS-STING pathway in BALB/c mice. The CGAS, STING and phosphorylated NF-κB (pp65). (FIGS. 8A-8C) Retinas were harvested and cGAS and STING protein levels were measured by Western blot analysis with β-actin as loading control and densitometry quantification. (FIGS. 8D-8E) Levels of phosphorylated NF-κB (p-NF-κB) were determined by Western blotting. Total NF-κB (p65) was used as an internal control and densitometry quantification. Each lane represents an individual mouse. (FIGS. 8F-8G) Photoreceptor cell apoptosis was evaluated by TUNEL on the retinal sections at the dose of 2 mg/kg in BALB/c mice and correlating quantitative analysis. Student's t-test was used (n=5, mean±SEM, *P<0.05, **<0.01).
To further evaluate the effect of RPE65-61 on retinal apoptosis, retinal sections from LIRD mice were used for Terminal deoxynucleotidyltransferase dUTP nick-end labeling (TUNEL) with the In Situ Cell Death Detection Kit (Millipore/sigma Cat #:11684795910). TUNEL-positive photoreceptor cells were quantified to evaluate the effects of RPE65-61 as described (Rajala, A. et al. 2018; Ma, H. et al. 2020).

T2 sequence (Q28175 whole entry): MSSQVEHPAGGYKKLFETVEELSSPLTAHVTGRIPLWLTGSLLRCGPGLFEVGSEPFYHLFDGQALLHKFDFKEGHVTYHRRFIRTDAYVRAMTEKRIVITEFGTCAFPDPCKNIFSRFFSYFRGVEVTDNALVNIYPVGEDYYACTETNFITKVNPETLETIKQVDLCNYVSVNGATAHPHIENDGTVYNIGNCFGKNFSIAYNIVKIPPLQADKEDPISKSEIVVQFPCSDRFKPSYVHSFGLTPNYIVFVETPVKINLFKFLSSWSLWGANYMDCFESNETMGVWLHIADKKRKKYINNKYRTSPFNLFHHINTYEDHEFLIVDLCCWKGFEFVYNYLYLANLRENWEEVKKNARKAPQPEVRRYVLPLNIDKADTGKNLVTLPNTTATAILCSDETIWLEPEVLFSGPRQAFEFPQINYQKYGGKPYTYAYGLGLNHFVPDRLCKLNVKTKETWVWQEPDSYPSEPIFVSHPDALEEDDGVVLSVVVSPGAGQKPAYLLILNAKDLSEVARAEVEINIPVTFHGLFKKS

mode of RPE65 inhibition ([1]; liposome-based assay with recombinant RPE65): uncompetitive inhibitor
pKi ([1]; liposome-based assay, 180 nM inhibitor): 6.82
RPE65 inhibition, in words [2]: effectively inhibit
pIC50 ([2]; bovine RPE microsomes, 0.2 μM all-trans-[3H]-retinol, read-out: apparent IC50, RPE65 isomerase activity): 7.10
pIC50 ([2]; read-out: IC50 in the primary IMH / RPE65 inhibition assay): 7.02
half-life at 1 μM [3]: 35.3 min
Compound: N=S(=O)(CCN)c1cccc(OCC2CCCCC2)c1 (racemic) [RPE65-61, (±)-(2-aminoethyl) (3-(cyclohexylmethoxy)phenyl) (imino)-λ^6-sulfanone]
atRAL reduction [4]: 80%
activation of cGAS/STING signal pathway in RPE and photoreceptor cells [5]: protected RPE and photoreceptor cells from the activation of cGAS/STING signal pathway
